Seven molecules from US8404651B2, “Compositions and methods for treating viral infections” (priority 2008, dated 2013) can be followed below.

SMILES strings stand for the structures. Several values for one entry are separate records, joined by “and”; a condition that tells them apart may be missing. Equal entries are not always repeated. Where two headings read alike, the source gives them in different places. Where only a bound is given, the exact number is not on record here.

Series [1] concerns HCV replicon cell line, AVA5 [sub-genomic (CON1), genotype 1b]. As to the kind of experiment: microbe, parasite or virus in culture. In kind it is cell-based. As to conditions: genotype 1B; for EC50: read-out: Control 2 (μM) EC50; for EC90: read-out: Control 2 (μM) EC90. As for the experimental part:
(§1) Primary anti-HCV assay-Antiviral activity against HCV was assessed in a 3-day assay (Okuse, et al., 2005; Antiviral. Res. 65:23; Korba, et al., 2008, Antiviral Res. 77:56) using the stably-expressing HCV replicon cell line, AVA5 [sub-genomic (CON1), genotype 1b](Blight, et al., 2000, Science 290:1972) maintained as sub-confluent cultures on 96-well plates. Antiviral activity was determined by blot hybridization analysis of intracellular HCV RNA (normalized to the level of cellular B-actin RNA in each culture sample). Cytotoxicity was assessed by neutral red dye uptake in cultures maintained in parallel plates.
(§2) EC50, EC90, and CC50 values were calculated by linear regression analysis (MS EXCEL®, QUATTROPRO®) using data combined from all treated cultures Korba & Gerin, 1992, Antivir. Res. 19:55; Okuse, et al., 2005, Antivir. Res. 65:23). Standard deviations for EC50 and EC90 values were calculated from the standard errors generated by the regression analyses. […] The Selectivity index (S.I.) was calculated as CC50/EC50. Recombinant human interferon 2b (PBL laboratories, Inc.) was used as an assay control.
(§3) For each combination of agents, three concentration ratios, centered on the use of the compounds at equipotent antiviral concentrations, were used. A dilution series (six three-fold-concentration steps, beginning at the approximate EC90) was then generated with the concentration ratio of the two agents remaining the same in each dilution step. Toxicity analysis was performed as described above for the monotherapies. Analysis of drug interactions in the combination studies was determined by the use of the […] program (Biosoft, Inc., Cambridge, United Kingdom). This program evaluates synergy, additivity, or antagonism by use of several methodologies, including that of Chou and Talalay with a statistical analysis employing the Monte Carlo technique to provide confidence limits, fraction-affected-confidence interval (FA-CI) plots, isobolograms, and median-effect plots. (Belenkii, M. S. Schinazi, R. A method for the analysis of combination therapies with statistical analysis. Antiviral Res. 25, 11, 2005).

The subject of series [2] is HCV replicon cell line, AVA5. As to the kind of experiment: Cytotoxicity by neutral red dye uptake in replicon cultures in parallel plates. The conditions noted are these: read-out: Control 2 (μM) CC50; genotype 1B. As for the experimental part:
as §1, §2, §3
For orientation: In antiviral work, replicon cells carry a viral genome segment that copies itself.

Series [3] deals with replicon cell line containing H/FL-Neo (genotype 1a (H77), full length construct). As to the kind of experiment: Secondary anti-HCV assay: genotype 1a replicon, format of the primary assay. In kind it is cell-based. The conditions noted are these: genotype 1a replicon. The source says:
Res. 19:55; Okuse, et al., 2005, Antivir. Res. 65:23).
Secondary anti-HCV assay—This assay assesses activity against different HCV genotypes using the format described for the primary assay. Activity against the genotype 1b HCV is included for comparison. Currently available is a replicon cell line containing H/FL-Neo (genotype 1a (H77), full length construct) (Blight, et al., 2003, J. Virol. 77:3181).

Another series deals with TA1535. The series can be described thus: In vitro bacterial mutagenicity assay (pre-incubation), strain TA1535. The conditions noted are these: positive control; for Number of revertants x1, x2, x3: individual plates; for Fold response: vs vehicle control. As for the experimental part: (§4) Dispense 100 microliter aliquots of the appropriate bacterial cultures into sample tubes stored on ice. Dispense aliquots of the vehicle, positive controls or dose formulations into the appropriate sample tubes. 2 mL top Agar and HBT cap was added to the sample tube, inverted three times and poured into MG plate. The lid was replaced on the plate and left on a level surface to let the agar harden. The plates were incubated in an incubator for 48 to 72 h. The background lawn and count the number of revertants was checked for each plate.

The subject of another series is WP2 uvrA. The series can be described thus: In vitro bacterial mutagenicity assay (pre-incubation), strain WP2 uvrA. As to conditions: positive control, S9 +, 15 μg/plate. As for the experimental part:
as §4

The test system of a further series is TA98. As to the kind of experiment: In vitro bacterial mutagenicity assay (pre-incubation), strain TA98. The conditions noted are these: positive control, TA98, S9 0, 1 μg/plate. As for the experimental part: as §4
For a further series, the system named is TA1537. The series can be described thus: In vitro bacterial mutagenicity assay (pre-incubation), strain TA1537. As to conditions: positive control, TA1537, S9 0, 10 μg/plate. As for the experimental part: as §4
The next series concerns TA100. The series can be described thus: In vitro bacterial mutagenicity assay (pre-incubation), strain TA100. As to conditions: positive control, TA100, S9 0, 0.5 μg/plate. As for the experimental part: as §4
Series [4] in a line: Cytotoxicity by neutral red dye uptake in replicon cultures in parallel plates. As to conditions: human, AVA5 HCV replicon cells (sub-genomic CON1, genotype 1b). As for the experimental part:
as §1, §2, §3

On to `C[C@@]1(O)[C@H](O)[C@@H](CO)O[C@H]1n1ccc(N)nc1=O` [2′CmeCyt], for which, in series [1], the EC50 was 1.4 µM and the EC90 is 5.3 µM. Also, in series [2], the CC50 is above 300 µM.

On to `COC1C(OP(=O)(OC[C@H]2O[C@@H](n3cnc4c(N)ncnc43)CC2O)SCOC(=O)C(C)(C)C)[C@@H](CO)O[C@H]1n1ccc(=O)[nH]c1=O` (some centres unmarked) [Compound 1], for which the EC50 in [3] (2-fold depression of intracellular HCV RNA, read-out: EC50 HCV Type 1A) was 2900 nM. Further, in [3] (10-fold depression of intracellular HCV RNA, read-out: EC90 HCV type 1A), the EC90 was determined as 8.5 µM.

In the case of `Nc1ccc2cc3ccccc3cc2c1` [Compound 2AA, reference compound], the “Number of revertants mean” value in the series with TA1535 (TA1535, S9 +, 5 μg/plate) was 254; in the series with WP2 uvrA, 373. Besides, the “Number of revertants x1, x2, x3” value was 263 and 242 and 257 in the series with TA1535 (TA1535, S9 +, 5 μg/plate); 476 and 357 and 285 with WP2 uvrA (individual plates). The Fold response in the series on TA1535 (TA1535, S9 +, 5 μg/plate) was 11; with WP2 uvrA (vs vehicle control), 9.6.

Regarding `O=[N+]([O-])c1ccc2c(c1)Cc1ccccc1-2` [Compound 2NF, reference compound], the “Number of revertants mean” value in the series on TA98 worked out at 139. Further, the “Number of revertants x1, x2, x3” value in the series with TA98 (individual plates) is 151 and 114 and 153. In the series on TA98 (vs vehicle control), this molecule displayed a Fold response of 4.5.

Regarding `Nc1c2ccccc2nc2ccccc12` [Compound 9AC, reference compound], the “Number of revertants mean” value in the series with TA1537 is given as 741. Besides, the “Number of revertants x1, x2, x3” value in the series with TA1537 (individual plates) was 728 and 910 and 585. The same molecule returned a Fold response in the series with TA1537 (vs vehicle control) of 57.

Regarding `[N-]=[N+]=[N-].[Na+]` [NaAz, reference compound], the “Number of revertants mean” value was found to be 321 in the series on TA1535 (TA1535, S9 0, 0.5 μg/plate) and 560 in the series with TA100. The “Number of revertants x1, x2, x3” value with TA1535 (TA1535, S9 0, 0.5 μg/plate) was 340 and 312 (2×); in the series on TA100 (individual plates), 568 and 569 and 543. For the same molecule, the Fold response in the series with TA1535 (TA1535, S9 0, 0.5 μg/plate) is reported as 12; in the series with TA100 (vs vehicle control), 5.0.

For `CCC[C@H](NC(=O)[C@@H]1[C@H]2CCC[C@H]2CN1C(=O)[C@@H](NC(=O)[C@@H](NC(=O)c1cnccn1)C1CCCCC1)C(C)(C)C)C(=O)C(=O)NC1CC1` [VX-950], in series [1] (Hepatitis C virus, Ava5), the EC50 is 0.249 µM and the EC90 is 0.892 µM. The CC50 at 3 day in series [4] worked out at 88 µM.

By EC50 is commonly meant the concentration that produces a half-maximal response. In general, EC90 refers to the point of the concentration-response curve where the effect stands at 90%. A word on the CC50: it is the concentration giving 50% cytotoxicity.
